Experimental data as given in patent US9125937B2, “Labelled analogues of halobenzamides as multimodal radiopharmaceuticals and their precursors” (INSTITUT NATIONAL DE LA SANTE ET DE LA RECHERCHE MEDICALE …, priority 2008, dated 2015).
Values joined by “and” are separate entries in the source; they are usually repeats but may differ in a detail not shown here. Identical values can stand only once. Counter-ions that a name gives are not always drawn.

Experiments:
[1] = test system: subcutaneous B16F0 melanoma; assay: Radionuclide therapy experiment (anti-tumoural efficacy); assay type: in vivo, C57BL/6J mice
Experimental: Animals. All experiments were carried out in accordance with the institution recommendations based on the guide for the care and use of laboratory animals. For therapy experiment, we used 6- to 8-week-old C57BL/6J male mice (Charles River Laboratories).
(§1) Tumour Implantation. For transplantation, cells grown in monolayer culture to confluence were trypsinized and washed with phosphate buffer saline (PBS). They were resuspended in PBS and each mouse received 0.1 mL subcutaneously (3×10^5 cells) on the left flank in order to allow a tumour growth on the body side. Ten days later, the tumours became palpable with a percentage of tumour take of 98-100%.
[^131I]11 treatment was administered intravenously at days 6 and 10 after tumour implantation (2×18.5 MBq) in groups of 10 mice. In the same conditions untreated-animals were studied. From three days before the treatment and along the experiment, lugol's iodine solution was added in the two mice groups alimentation to block iodine thyroid uptake. To monitor tumoral growth, tumor volume in mm^3 was calculated twice a week from the measurement of two perpendicular diameters using a caliper according to the formula L×S^2/2 where L and S are the largest and smallest diameters in mm respectively. At day 19 of the experiment, mice were sacrificed. Tumours were removed, dissected and weighted.
Statistical Analyses. In experiment data are given as mean+SEM and were analyzed by the Student or ANOVA tests.
Anti-tumoural Efficacy of Targeted Radionuclide Therapy. To assess the therapeutic efficacy of compound [^131I]11 in C57BL/6J mice bearing subcutaneous B16F0 melanoma cells, we injected twice 18.5 MBq [^131I]11 into group of 10 mice. […] The body weight of mice in all groups was stable (data not shown). The weight of tumours at 19 days were 2.29±1.03 g and 0.72±0.28 g respectively for controls and treated.

B16F0 melanoma tumour [2] = assay: Tumour uptake by counting of tumour tissue after dissection (gamma counter); assay type: in vivo, mice
Text: (§2) (iii) For the compound N-(2-diethylaminoethyl)-6-iodoquinoxaline-2-carboxamide, which is described in PCT application n°PCT/IB2007/052992 as compound n°45 in table I of said patent application (hereinafter called “ICF01012”), the tumour uptake has been quantified by 3 methods: camera imaging, autoradiography and counting of tumour tissue after dissection (gamma counter), values are summarized below.

B16 F0 murine melanoma = assay: Biodistribution study by planar scintigraphic imaging (gamma camera), tumour uptake quantification; assay type: in vivo, C57BL6 male mice; details: i.v.
Experimental: as §1
The in vivo biodistribution and kinetic profile of each radiolabelled (iodine-125) compound have been studied in C57BL6 male mice bearing the B16 F0 murine melanoma by repeated planar scintigraphic imaging which allows the tumour uptake follow-up in the same animal.
Gamma Camera. In vivo radionuclide imaging was performed using a γ IMAGER (Biospace Mesures, Paris, France) especially dedicated for small animal, a scintigraphic camera with a continuous 4 mm thick×120 mm diameter CsI(Na) crystal, a position-sensitive Hamamatsu R3292 photomultiplier and a 10 cm field of view.
Imaging Protocol. On day 14 after tumour implantation (tumour weight 0.25±0.10 g) each [^125I]-radioiodinated compound was administered intravenously via a tail vein (0.1 μmol, range 3.7 to 7 MBq/animal) in three mice for each compound. At different times after administration (1, 3, 6, 24, 72 hours, 5, 7, 10 and 15 days), mice were anesthetized with 0.2 mL, for a 20 g mouse, of a ketamine-xylazine mixture in saline (1-0.25 mL for 5 mL) by i. p. administration, and repeated planar scintigraphic whole body imaging (mouse laying in anterior position on the camera field) were performed by an acquisition time of 10 min. For this study, the camera was equipped with a 1.8/0.2/20 collimator (hole diameter/septum thickness/height in mm).
Tumoural Radioactivity Quantification Approach. The injected activity to each mouse was determined from scintigraphic imaging of the syringe before and after the injection using the γ-IMAGER.
Regions of interest (ROIs) were delineated over the whole body image: whole body uptake area (or the various fixing areas, eyes, thyroid and abdomen) and one for the tumour uptake area. In the various ROIs, the activity (cpm) was quantified using the Biospace measures γ VISION+software. These values were normalized to the injected dose. For the tumour, the activity was also normalized to the tumour weight. Firstly, the volume was calculated from the two dimensions caliper measurement (Bissery, M. C.; Guenard, D.; Gueritte-Voegelin, F.; Lavelle, F. Experimental antitumour activity of taxotere (RP 56976, NSC 628503) a taxol analogue. Cancer res. 1991, 51, 4845-4852). Secondly, the weight was determined from the volume value corrected by a factor determined from a large panel of experiments (Weight g=volume mm^3×0.6). The data were expressed as % ID/g of B 16F0 melanoma tumour.

B16F0 melanoma tumour [3] = assay: Tumour uptake by whole body sectioning autoradiography; assay type: in vivo, mice
Text: (ii) A comparison camera quantified in vivo values with values determined using the whole body sectioning conventional autoradiographic method has been done for several compounds. The correlation coefficient obtained between the two methods was 0.92.
as §2

CCN(CCNC(=O)c1ccc2cc(I)ccc2n1)CCOc1cccnc1F.Cl.Cl
melting point: 99 to 101 °C (dec.)

CCN(CCNC(=O)c1cnc2cc(I)ccc2n1)CCNc1cccc(F)n1.Cl.Cl
melting point: 99 to 101 °C (dec.)

CCN(CCNC(=O)c1cnc2cc(I)ccc2n1)CCNc1cccc(Br)n1 [Compound 63, N-[2-[N-[2-[(6-bromopyridin-2-yl)amino]ethyl]-N-(ethyl)amino]ethyl]-6-iodoquinoxaline-2-carboxamide]
melting point: 49 to 51 °C and 50 °C

CCN(CC)CCNC(=O)c1cc(I)cc2c(F)ccnc12 [Compound 102, N-[2-(diethylamino)ethyl]-4-fluoro-6-iodoquinoline-8-carboxamide]
melting point: 80 °C and 79 to 81 °C

CCN(CC)CCNC(=O)c1cc(F)c2cc(I)ccc2n1 [Compound 106, N-[2-(diethylamino)ethyl]-4-fluoro-6-iodoquinoline-2-carboxamide]
melting point: 59 °C and 58 to 60 °C

CCN(CC)Cc1ccnc(F)c1CNC(=O)c1cnc2cc(I)ccc2n1 [Compound 91, N-[[4-(N,N-diethylaminomethyl)-2-fluoropyridin-3-yl]methyl]-6-iodoquinoxaline-2-carboxamide]
melting point: 147 to 149 °C

CCN(CCNC(=O)c1cnc2cc([131I])ccc2n1)CCOc1cccnc1F [[^131I]11, [^131I]N-[2-[N-ethyl-N-[2-(2-fluoropyridin-3-yloxy)ethyl]amino]ethyl]-6-iodoquinoxaline-2-carboxamide dihydrochloride salt]
Weight of tumours at 19 days ([1]; 2×18.5 MBq i.v. at days 6 and 10, controls 2.29±1.03 g, p=0.01): 0.72 ± 0.28 g
Tumour doubling time ([1]; 2×18.5 MBq i.v. at days 6 and 10 after tumour implantation, untreated 2.82±0.30 days): 3.83 ± 0.34 days
Body weight of mice ([1]; all groups, data not shown): stable
Ratio T/C of tumour weight at 19 days ([1]; treated vs controls): 0.31
Effect on B16F0 tumoural growth ([1]; tumour volume, p<0.001 vs untreated): significantly slowed the B16F0 tumoural growth

CCN(CCNC(=O)c1ccc2cncc(I)c2n1)CCOc1cccnc1F.Cl.Cl
melting point: 131 to 133 °C (dec.)

CCN(CCNC(=O)c1cn2cc(I)ccc2n1)CCOc1cccnc1F.Cl.Cl
melting point: 143 to 145 °C

CCN(CC)CCNC(=O)c1cnc2ccc(I)cc2c1F [Compound 96, N-[2-(diethylamino)ethyl]-4-fluoro-6-iodoquinoline-3-carboxamide]
melting point: 88 to 90 °C and 89 °C

CCN(CCNC(=O)c1ccnc(F)c1)CCNC(=O)c1cnc2cc(I)ccc2n1.Cl.Cl
melting point: 157 to 159 °C

CCN(CC)CCNC(=O)c1cnc2cc([125I])ccc2n1 [[^125I]ICF01012, reference compound]
Radioactive concentration in tumour (B16F0 melanoma tumour [2]; 1 H): 14.9 ± 5.7 % ID/g
Radioactive concentration in tumour (B16F0 melanoma tumour [2]; 3 H): 28.1 ± 8.9 % ID/g
Radioactive concentration in tumour (B16F0 melanoma tumour [2]; 6 H): 29.9 ± 2.8 % ID/g
Radioactive concentration in tumour (B16F0 melanoma tumour [2]; 24 H): 29.7 ± 3.1 % ID/g
Radioactive concentration in tumour (B16F0 melanoma tumour [2]; 72 H): 11.4 ± 2.6 % ID/g
Radioactive concentration in tumour (tumoural uptake) (B16 F0 murine melanoma; 1 H post injection): 21.8 ± 6.6 % ID/g
Radioactive concentration in tumour (tumoural uptake) (B16 F0 murine melanoma; 3 H post injection): 26.2 ± 6.6 % ID/g and 26.3 ± 6.6 % ID/g
Radioactive concentration in tumour (tumoural uptake) (B16 F0 murine melanoma; 6 H post injection): 29.6 ± 8.4 % ID/g
Radioactive concentration in tumour (tumoural uptake) (B16 F0 murine melanoma; 24 H post injection): 28.0 ± 8.1 % ID/g and 28.0 ± 8.2 % ID/g
Radioactive concentration in tumour (tumoural uptake) (B16 F0 murine melanoma; 72 H post injection): 12.3 ± 3.7 % ID/g
Radioactive concentration in tumour (tumoural uptake) (B16 F0 murine melanoma; 120 H post injection): 7.3 ± 3.6 % ID/g
Radioactive concentration in tumour (tumoural uptake) (B16 F0 murine melanoma; 168 H post injection): 3.4 ± 0.3 % ID/g
Radioactive concentration in tumour (tumoural uptake) (B16 F0 murine melanoma; 240 H post injection): 1.9 ± 0.4 % ID/g
Radioactive concentration in tumour (B16F0 melanoma tumour [3]; 1 H): 17 ± 11.1 % ID/g
Radioactive concentration in tumour (B16F0 melanoma tumour [3]; 3 H): 27.7 ± 7.0 % ID/g
Radioactive concentration in tumour (B16F0 melanoma tumour [3]; 6 H): 36.4 ± 7.6 % ID/g
Radioactive concentration in tumour (B16F0 melanoma tumour [3]; 24 H): 21.7 ± 10.8 % ID/g
Radioactive concentration in tumour (B16F0 melanoma tumour [3]; 72 H): 12.5 ± 1.6 % ID/g

CCN(CCNC(=O)c1ccnc(F)c1)CCNC(=O)c1cnc2cc(I)ccc2n1 [Compound 39, N-[2-[N-ethyl-N-[2-[[(2-fluoropyridin-4-yl)carbonyl]amino]ethyl]amino]ethyl]-6-iodoquinoxaline-2-carboxamide]
melting point: 146 to 148 °C

CCN(CCNC(=O)c1ccc2cc(I)ccc2c1)CCOc1cccnc1F.Cl
melting point: 157 to 159 °C

CCN(CCNC(=O)c1cccc2nc3cc(I)ccc3nc12)CCOc1cccnc1F.Cl.Cl
melting point: 127 to 129 °C (dec.)

CCN(CCNC(=O)c1cnc2cc([125I])ccc2n1)CCOc1cccnc1F [[^125I]11, [^125I]N-[2-[N-ethyl-N-[2-(2-fluoropyridin-3-yloxy)ethyl]amino]ethyl]-6-iodoquinoxaline-2-carboxamide dihydrochloride salt]
Radioactive concentration in tumour (tumoural uptake) (B16 F0 murine melanoma; 1 H post injection): 12.7 ± 2.3 % ID/g
Radioactive concentration in tumour (tumoural uptake) (B16 F0 murine melanoma; 6 H post injection): 18.8 ± 1.6 % ID/g
Radioactive concentration in tumour (tumoural uptake) (B16 F0 murine melanoma; 24 H post injection): 18.2 ± 0.6 % ID/g
Radioactive concentration in tumour (tumoural uptake) (B16 F0 murine melanoma; 72 H post injection): 10.3 ± 1.7 % ID/g
Radioactive concentration in tumour (tumoural uptake) (B16 F0 murine melanoma; 120 H post injection): 5.2 ± 1.2 % ID/g
Radioactive concentration in tumour (tumoural uptake) (B16 F0 murine melanoma; 168 H post injection): 3.2 ± 0.4 % ID/g
Radioactive concentration in tumour (tumoural uptake) (B16 F0 murine melanoma; 240 H post injection): 1.7 ± 0.4 % ID/g
Radioactive concentration in tumour (tumoural uptake) (B16 F0 murine melanoma; 360 H (15 days) post injection): 0.6 ± 0.3 % ID/g
